In US5659023A, “Nucleotide analogues” (Gilead Sciences, Inc., priority 1995, dated 1997):
Read-outs that look alike come from different tables or passages of the source.

Assays:
[1] = toxicity assay in normal human dermal fibroblasts; assay type: cell-based
Method: (§1) Compounds made in the foregoing examples were assayed for inhibitory effect against human CMV using the standard plaque inhibition assay (Lurain, "J. Vir." 66:7146-7152 (1992)). The cells used for the toxicity assay were normal human dermal fibroblasts.

human CMV = assay: standard plaque inhibition assay, inhibitory effect against human CMV; assay type: cell-based; conditions: Human betaherpesvirus 5
Method: as §1

[2] = human CMV, plaque inhibition assay (Table 8), read-out: IC50

## Nc1ccn([C@@H]2CC=C(P(=O)(O)O)O[C@@H]2CO)c(=O)n1 [(28'), 4-(cytosin-1-yl)-2,3-dideoxy-D-threo-hex-1-enopyranosyl phosphonic acid]
[1]
  CC50: > 1000 µM
Human CMV; [2]
  IC50: 40 µM

## Nc1ccn([C@@H]2C=C[C@H](P(=O)(O)O)O[C@@H]2CO)c(=O)n1 [(30), 4-(cytosin-1-yl)-2,3-dideoxy-β-D-threo-hex-2-enopyranosylphosphonic acid]
[1]
  CC50: > 1000 µM
Human CMV
  IC50: 10 µM

## Nc1ccn([C@@H]2CC[C@H](P(=O)(O)O)O[C@@H]2CO)c(=O)n1 [(32'), 4-(cytosin-1-yl)-β-D-threo-hexopyranosylphosphonic acid]
[1]
  CC50: > 1000 µM
Human CMV; [2]
  IC50: 80 µM

## C[C@@H]1O[C@H](P(=O)(O)O)C=C[C@@H]1n1ccc(N)nc1=O [(64), 4-(cytosin-1-yl)-2,3,6-trideoxy-β-L-threo-hex-2-enopyranosylphosphonic acid]
[1]
  CC50: > 1000 µM
Human CMV; [2]
  IC50: 200 µM

## C[C@@H]1OC(P(=O)(O)O)=CC[C@@H]1n1ccc(N)nc1=O [(65), 4-(cytosin-1-yl)-2,3,6-trideoxy-L-threo-hex-1-enopyranosylphosphonic acid]
[1]
  CC50: > 1000 µM
Human CMV; [2]
  IC50: 300 µM

## Nc1ccn(C[C@@H](CO)OCP(=O)(O)O)c(=O)n1 [HPMPC, reference compound]
[1]; reference HPMPC, read-out: CC50
  CC50: 200 µM
Human CMV; reference HPMPC, read-out: IC50
  IC50: 0.5 µM
